Experimental data: patent US9708311B2, “Benzimidazole derivatives as EP4 antagonists” (BAYER PHARMA AKTIENGESELLSCHAFT, priority 2012, dated 2017)

What follows are molecules tested against human EP4 receptor (Homo sapiens (Human), UniProt P35408) (assay: Test for antagonism of the human EP4 receptor signal (cAMP HTRF)). Details: cells expressing hEP4, PGE2 at EC80 (0.4 nM), cAMP TR-FRET; read-out: Antagonism hEP4 IC50.
Sequence of human EP4 receptor (P35408 whole entry): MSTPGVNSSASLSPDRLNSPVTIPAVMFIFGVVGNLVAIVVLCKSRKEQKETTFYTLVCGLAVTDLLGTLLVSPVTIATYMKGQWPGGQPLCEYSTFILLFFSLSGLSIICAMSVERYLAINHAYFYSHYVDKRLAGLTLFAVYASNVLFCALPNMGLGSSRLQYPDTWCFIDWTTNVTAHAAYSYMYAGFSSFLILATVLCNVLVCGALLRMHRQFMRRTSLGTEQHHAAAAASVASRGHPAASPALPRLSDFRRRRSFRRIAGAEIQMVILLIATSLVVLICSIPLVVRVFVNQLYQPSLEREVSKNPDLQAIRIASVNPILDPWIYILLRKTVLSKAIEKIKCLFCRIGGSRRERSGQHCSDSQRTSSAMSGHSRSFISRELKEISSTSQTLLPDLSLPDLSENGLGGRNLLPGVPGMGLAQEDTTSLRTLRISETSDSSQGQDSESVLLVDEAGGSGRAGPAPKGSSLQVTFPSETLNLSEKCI
Format: cell-based
Description: The binding of the agonist prostaglandin E2 (PGE2) to the EP4 subtype of human hPGE2-R (hEP4-R) induces the activation of membrane-bound adenylate cyclases and thus the formation of cAMP. In the presence of the phosphodiesterase inhibitor IBMX, this cAMP accumulates intracellularly and is employed in a competitive detection procedure after cell lysis. In this procedure, it competes with a fluorescence-labelled cAMP (cAMP-d2) for binding to an Eu cryptate-labelled anti-cAMP antibody. In the absence of cellular cAMP, a complex is formed between the Eu cryptate-labelled anti-cAMP antibody and the cAMP-d2 molecule, which after excitation at 337 nm makes possible an energy transfer based on FRET (fluorescence resonance energy transfer) to the cAMP-d2 tracer and leads to a long-lasting fluorescence signal (emission at 665 and 620 nm). This signal is time-resolved, i.e. measured in a suitable measuring apparatus after decay of the background fluorescence (time resolved; TR-FRET). The wave ratio determination (emission 665 nm/emission 620 nm*10000) moreover makes it possible to standardize individual measurement differences in the added amounts of the detection reagents.
By means of prostaglandin E2 administration and increase in the intracellular cAMP, a lowering of the FRET signal occurs, which in the case of an antagonistic substance action increases again.
A further 20 min at room temperature later, the cell lysate is measured according to the manufacturer's instructions in a TR-FRET-suitable measuring apparatus (compare cAMP HTRF assay kit: Cisbio International 62AM6PEJ high range)
For `CCn1c2ccccc2c2cc(-c3nc4cc(C(=O)NS(=O)(=O)CCc5ccccc5Cl)ccc4n3CCOC)ccc21` [Example 61, N-{[2-(2-Chlorophenyl)ethyl]sulphonyl}-2-(9-ethyl-9H-carbazol-3-yl)-1-(2-methoxyethyl)-1H-benzimidazole-5-carboxamide], the IC50 was 167 nM. Work on `CCn1c2ccccc2c2cc(-c3nc4cc(C(=O)NS(=O)(=O)Cc5ccc(C(F)(F)F)cc5)ccc4n3CCOC)ccc21` [Example 62, 2-(9-Ethyl-9H-carbazol-3-yl)-1-(2-methoxyethyl)-N-{[4-(trifluoromethyl)benzyl]sulphonyl}-1H-benzimidazole-5-carboxamide] yielded an IC50 of 186 nM. Molecule `CCn1c2ccccc2c2cc(-c3nc4cc(C(=O)NS(=O)(=O)c5ccc(C)cn5)ccc4n3CCOC)ccc21` [Example 63, 2-(9-Ethyl-9H-carbazol-3-yl)-1-(2-methoxyethyl)-N-[(5-methylpyridin-2-yl)sulphonyl]-1H-benzimidazole-5-carboxamide] has an IC50 of 117 nM. For `CCn1c2ccccc2c2cc(-c3nc4cc(C(=O)NS(=O)(=O)Cc5ccc(Cl)cc5)ccc4n3CCOC)ccc21` [Example 64, N-[(4-Chlorobenzyl)sulphonyl]-2-(9-ethyl-9H-carbazol-3-yl)-1-(2-methoxyethyl)-1H-benzimidazole-5-carboxamide], the IC50 was 138 nM. `CCn1c2ccccc2c2cc(-c3nc4cc(C(=O)NS(=O)(=O)Cc5ccccc5OC(F)(F)F)ccc4n3CCOC)ccc21` [Example 65, 2-(9-Ethyl-9H-carbazol-3-yl)-1-(2-methoxyethyl)-N-{[2-(trifluoromethoxy)benzyl]-sulphonyl}-1H-benzimidazole-5-carboxamide] was tested, and the IC50 was 133 nM. With `CCn1c2ccccc2c2cc(-c3nc4cc(C(=O)NS(=O)(=O)CC(C)(C)C)ccc4n3CCOC)ccc21` [Example 66, N-[(2,2-Dimethylpropyl)sulphonyl]-2-(9-ethyl-9H-carbazol-3-yl)-1-(2-methoxyethyl)-1H-benzimidazole-5-carboxamide] the IC50 was 16.1 nM. Molecule `CCn1c2ccccc2c2cc(-c3nc4cc(C(=O)NS(=O)(=O)Cc5c(C)cccc5Cl)ccc4n3CCOC)ccc21` [Example 67, N-[(2-Chloro-6-methylbenzyl)sulphonyl]-2-(9-ethyl-9H-carbazol-3-yl)-1-(2-methoxy-ethyl)-1H-benzimidazole-5-carboxamide] has an IC50 of 36.9 nM. For `CCn1c2ccccc2c2cc(-c3nc4cc(C(=O)NS(=O)(=O)Cc5ncccc5C)ccc4n3CCOC)ccc21` [Example 68, 2-(9-Ethyl-9H-carbazol-3-yl)-1-(2-methoxyethyl)-N-{[(3-methylpyridin-2-yl)methyl]-sulphonyl}-1H-benzimidazole-5-carboxamide], the IC50 was 36.3 nM. `CCn1c2ccccc2c2cc(-c3nc4cc(C(=O)NS(=O)(=O)CCc5cccc(OC)c5)ccc4n3CCOC)ccc21` [Example 69, 2-(9-Ethyl-9H-carbazol-3-yl)-1-(2-methoxyethyl)-N-{[2-(3-methoxyphenyl)ethyl]-sulphonyl}-1H-benzimidazole-5-carboxamide] showed an IC50 of 155 nM. For `CCn1c2ccccc2c2cc(-c3nc4cc(C(=O)O)ccc4n3CCN3CCOCC3)ccc21` [Example 70, 2-(9-Ethyl-9H-carbazol-3-yl)-1-[2-(morpholin-4-yl)ethyl]-1H-benzimidazole-5-carboxylic acid], the IC50 was 2460 nM. `CCOC(=O)c1ccc2c(c1)nc(-c1ccc3c(c1)c1ccccc1n3CC)n2CCN(C)C` [Example 71, Ethyl-1-[2-(dimethylamino)ethyl]-2-(9-ethyl-9H-carbazol-3-yl)-1H-benzimidazole-5-carboxylate] showed an IC50 of 872 nM. Molecule `CCn1c2ccccc2c2cc(-c3nc4cc(C(=O)O)ccc4n3CCN(C)C)ccc21` [Example 72, 1-[2-(Dimethylamino)ethyl]-2-(9-ethyl-9H-carbazol-3-yl)-1H-benzimidazole-5-carboxylic acid] has an IC50 of 82.5 nM. `CCn1c2ccccc2c2cc(-c3nc4cc(C(=O)NC)ccc4n3CCN(C)C)ccc21` [Example 73, 1-[2-(Dimethylamino)ethyl]-2-(9-ethyl-9H-carbazol-3-yl)-N-methyl-1H-benzimidazole-5-carboxamide] showed an IC50 of 382 nM. `CCn1c2ccccc2c2cc(-c3nc4cc(C(=O)NS(=O)(=O)C5CC5)ccc4n3CCN(C)C)ccc21` [Example 74, N-(Cyclopropylsulphonyl)-1-[2-(dimethylamino)ethyl]-2-(9-ethyl-9H-carbazol-3-yl)-1H-benzimidazole-5-carboxamide] showed an IC50 of 87.2 nM. Molecule `CCn1c2ccccc2c2cc(-c3nc4cc(C(=O)NS(=O)(=O)c5ccc(C)cc5)ccc4n3CCN(C)C)ccc21` [Example 75, 1-[2-(Dimethylamino)ethyl]-2-(9-ethyl-9H-carbazol-3-yl)-N-[(4-methylphenyl)sulphonyl]-1H-benzimidazole-5-carboxamide] has an IC50 of 21.4 nM. In the case of `CCn1c2ccccc2c2cc(-c3nc4cc(C(=O)N5CCCC5)ccc4n3CCOC)ccc21` [Example 76, [2-(9-Ethyl-9H-carbazol-3-yl)-1-(2-methoxyethyl)-1H-benzimidazol-5-yl](pyrrolidin-1-yl)-methanone], the IC50 is reported as 41.3 nM. Work on `CCn1c2ccccc2c2cc(-c3nc4cc(C(=O)NCC(F)(F)F)ccc4n3CCOC)ccc21` [Example 77, 2-(9-Ethyl-9H-carbazol-3-yl)-1-(2-methoxyethyl)-N-(2,2,2-trifluoroethyl)-1H-benzimidazole-5-carboxamide] yielded an IC50 of 49.2 nM. Work on `CCn1c2ccccc2c2cc(-c3nc4cc(C(=O)NCCN5CCOCC5)ccc4n3CCOC)ccc21` [Example 78, 2-(9-Ethyl-9H-carbazol-3-yl)-1-(2-methoxyethyl)-N-[2-(morpholin-4-yl)ethyl]-1H-benzimidazole-5-carboxamide] yielded an IC50 of 74.3 nM. In the case of `CCn1c2ccccc2c2cc(-c3nc4cc(C(=O)NCCN5CCOCC5)ccc4n3CC3CC3)ccc21` [Example 79, 1-(Cyclopropylmethyl)-2-(9-ethyl-9H-carbazol-3-yl)-N-[2-(morpholin-4-yl)ethyl]-1H-benzimidazole-5-carboxamide], the IC50 is reported as 106 nM. `CCn1c2ccccc2c2cc(-c3nc4cc(C(=O)N5CCC5)ccc4n3CC3CC3)ccc21` [Example 80, Azetidin-1-yl[1-(cyclopropylmethyl)-2-(9-ethyl-9H-carbazol-3-yl)-1H-benzimidazol-5-yl]-methanone] was tested, and the IC50 was 68.3 nM. `CCn1c2ccccc2c2cc(-c3nc4cc(C(=O)N5CCOCC5)ccc4n3CCOC)ccc21` [Example 81, [2-(9-Ethyl-9H-carbazol-3-yl)-1-(2-methoxyethyl)-1H-benzimidazol-5-yl](morpholin-4-yl)-methanone] gave an IC50 of 123 nM. `CCn1c2ccccc2c2cc(-c3nc4cc(C(N)=O)ccc4n3CCOC)ccc21` [Example 82, 2-(9-Ethyl-9H-carbazol-3-yl)-1-(2-methoxyethyl)-1H-benzimidazole-5-carboxamide] gave an IC50 of 134 nM. Work on `CCn1c2ccccc2c2cc(-c3nc4cc(C(=O)N(C)C)ccc4n3CCOC)ccc21` [Example 83, 2-(9-Ethyl-9H-carbazol-3-yl)-1-(2-methoxyethyl)-N,N-dimethyl-1H-benzimidazole-5-carboxamide] yielded an IC50 of 122 nM. `CCn1c2ccccc2c2cc(-c3nc4cc(C(=O)N(C)S(C)(=O)=O)ccc4n3CCOC)ccc21` [Example 84, 2-(9-Ethyl-9H-carbazol-3-yl)-1-(2-methoxyethyl)-N-methyl-N-(methylsulphonyl)-1H-benzimidazole-5-carboxamide] gave an IC50 of 143 nM. `C=CCn1c(-c2ccc3c(c2)c2ccccc2n3CC)nc2cc(C(=O)N(C)C)ccc21` [Example 85, 1-Allyl-2-(9-ethyl-9H-carbazol-3-yl)-N,N-dimethyl-1H-benzimidazole-5-carboxamide] was tested, and the IC50 was 1860 nM. `CCn1c2ccccc2c2cc(-c3nc4cc(C(=O)NCCN(C)C)ccc4n3CCOC)ccc21` [Example 86, N-[2-(Dimethylamino)ethyl]-2-(9-ethyl-9H-carbazol-3-yl)-1-(2-methoxyethyl)-1H-benzimidazole-5-carboxamide] gave an IC50 of 245 nM. With `CCn1c2ccccc2c2cc(-c3nc4cc(C(=O)NCCN5CCCC5)ccc4n3CCOC)ccc21` [Example 87, 2-(9-Ethyl-9H-carbazol-3-yl)-1-(2-methoxyethyl)-N-[2-(pyrrolidin-1-yl)ethyl]-1H-benzimidazole-5-carboxamide] the IC50 was 209 nM. Work on `C=CCn1c(-c2ccc3c(c2)c2ccccc2n3CC)nc2cc(C(=O)NC)ccc21` [Example 88, 1-Allyl-2-(9-ethyl-9H-carbazol-3-yl)-N-methyl-1H-benzimidazole-5-carboxamide] yielded an IC50 of 2100 nM. Molecule `C=CCn1c(-c2ccc3c(c2)c2ccccc2n3CC)nc2cc(C(N)=O)ccc21` [Example 89, 1-Allyl-2-(9-ethyl-9H-carbazol-3-yl)-1H-benzimidazole-5-carboxamide] has an IC50 of 3640 nM. With `CCn1c2ccccc2c2cc(-c3nc4cc(C(=O)NC)ccc4n3C)ccc21` [Example 90, 2-(9-Ethyl-9H-carbazol-3-yl)-N,1-dimethyl-1H-benzimidazole-5-carboxamide] the IC50 was 2860 nM. With `CCn1c2ccccc2c2cc(-c3nc4cc(C(=O)O)ccc4n3CCO)ccc21` [Example 91, 2-(9-Ethyl-9H-carbazol-3-yl)-1-(2-hydroxyethyl)-1H-benzimidazole-5-carboxylic acid] the IC50 was 113 nM.
